Consider 4 molecules from US7642221B2, “Substituted thien-3-yl-sulphonylamino(thio)carbonyl-triazoline(ethi)ones” (Bayer Aktiengesellschaft, priority 1999, dated 2010).

Assay type in all cases: in vivo
The test system of test [1] is weeds. The experiment in a line: Post-emergence test, activity against weeds. As to the method: (§1) • Solvent: 5 parts by weight of acetone • Emulsifier: 1 part by weight of alkylaryl polyglycol ether
(§2) To produce a suitable preparation of active compound, one part by weight of active compound is mixed with the stated amount of solvent, the stated amount of emulsifier is added and the concentrate is diluted with water to the desired concentration.
(§3) Test plants which have a height of 5-15 cm are sprayed with the preparation of active compound such that the particular amounts of active compound desired are applied per unit area. The concentration of the spray liquor is chosen so that the particular amounts of active compound desired are applied in 1000 l of water/ha.
(§4) After three weeks, the degree of damage to the plants is rated in % damage in comparison to the development of the untreated control.
(§5) The figures denote: • 0%=no effect (like untreated control) • 100%=total destruction

The test system of test [2] is weeds. In words: Pre-emergence test, activity against weeds. Here is the method:
as §1
(§6) To produce a suitable preparation of active compound, 1 part by weight of active compound is mixed with the stated amount of solvent, the stated amount of emulsifier is added and the concentrate is diluted with water to the desired concentration.
(§7) Seeds of the test plants are sown in normal soil. After about 24 hours, the soil is sprayed with the preparation of active compound such that the particular amount of active compound desired is applied per unit area. The concentration of the spray liquor is chosen so that the particular amount of active compound desired is applied in 1000 liters of water per hectare.
as §4
(§8) The figure denote: • 0%=no effect (like untreated control) • 100%=total destruction

Test [3] deals with Sinapis. The experiment in a line: Post-emergence test/greenhouse. The note with it: greenhouse, rated after three weeks. As to the method:
as §1, §2, §3, §4, §5

Test [4] has as its system Amaranthus. In words: Post-emergence test/greenhouse. The note with it: greenhouse, rated after three weeks. As to the method:
as §1, §2, §3, §4, §5

Test [5] deals with Xanthium. In words: Post-emergence test/greenhouse. The note with it: greenhouse, rated after three weeks. Here is the method: as §1, §2, §3, §4, §5
In test [6] the test system is Alopecurus. In words: Post-emergence test/greenhouse. The note with it: greenhouse, rated after three weeks. Here is the method: as §1, §2, §3, §4, §5
Test [7] deals with Abutilon. The experiment in a line: Post-emergence test/greenhouse. The note with it: greenhouse, rated after three weeks. Here is the method:
as §1, §2, §3, §4, §5

In the next test the test system is Avenafatua. The experiment in a line: Post-emergence test/greenhouse. The settings on record: greenhouse, rated after three weeks. Here is the method:
as §1, §2, §3, §4, §5

The subject of test [8] is Setaria. In words: Post-emergence test/greenhouse. The settings on record: greenhouse, rated after three weeks. As to the method:
as §1, §2, §3, §4, §5

The subject of test [9] is Sinapis. In words: Pre-emergence test/greenhouse. The settings on record: greenhouse, rated after three weeks. As to the method:
as §1, §6, §7, §4, §8

Test [10] has as its system Amaranthus. The experiment in a line: Pre-emergence test/greenhouse. The note with it: greenhouse, rated after three weeks. As to the method: as §1, §6, §7, §4, §8
The test system of another test is Cyperus. The experiment in a line: Pre-emergence test/greenhouse. The note with it: greenhouse, rated after three weeks. As to the method: as §1, §6, §7, §4, §8
Test [11] deals with Xanthium. In words: Pre-emergence test/greenhouse. The settings on record: greenhouse, rated after three weeks. As to the method:
as §1, §6, §7, §4, §8

The subject of test [12] is Alopecurus. The experiment in a line: Pre-emergence test/greenhouse. The settings on record: greenhouse, rated after three weeks. As to the method:
as §1, §6, §7, §4, §8

The test system of another test is Galium. The experiment in a line: Pre-emergence test/greenhouse. The settings on record: greenhouse, 250 g of ai/ha, rated after three weeks. As to the method: as §1, §6, §7, §4, §8
Test [13] deals with Abutilon. In words: Pre-emergence test/greenhouse. The settings on record: greenhouse, rated after three weeks. Here is the method:
as §1, §6, §7, §4, §8

Test [14] deals with Setaria. The experiment in a line: Pre-emergence test/greenhouse. The settings on record: greenhouse, rated after three weeks. As to the method:
as §1, §6, §7, §4, §8

For the molecule `CCOc1nn(C(=O)NS(=O)(=O)c2c(C(=O)OC)csc2C)c(=O)n1C1CC1` [Example 6], the activity against weeds result in the test on weeds [1] and in the test with weeds [2] was “very strong activity” each time. In addition, the “degree of damage to the plants, Sinapis” value amounted to 100% in the test on Sinapis [3] (250 g of ai/ha) and 95% in the test with Sinapis [9] (250 g of ai/ha). In addition, the “degree of damage to the plants, Amaranthus” value (shortened to “degree of damage … Amaranthus”) with Amaranthus [4] (250 g of ai/ha) was 100%; in the test on Amaranthus [10] (250 g of ai/ha) it was 95%. Also, the figures for the “degree of damage to the plants, Xanthium” value in the test on Xanthium [5] (250 g of ai/ha) and with Xanthium [11] (250 g of ai/ha) were 100% and 95%, respectively. For the same molecule, the “degree of damage to the plants, Alopecurus” value (shortened to “degree of damage … Alopecurus”) amounted to 100% in the test with Alopecurus [6] (250 g of ai/ha) and 95% with Alopecurus [12] (250 g of ai/ha). The “degree of damage to the plants, Abutilon” value in the test with Abutilon [7] (250 g of ai/ha) and with Abutilon [13] (250 g of ai/ha) was 100% each time. Also, in the test with Avenafatua (250 g of ai/ha), the “degree of damage to the plants, Avenafatua” value (shortened to “degree of damage … Avenafatua”) is on record as 100%. The “degree of damage to the plants, Setaria” value with Setaria [8] (250 g of ai/ha) and in the test with Setaria [14] (250 g of ai/ha) was 100% in each case. Also, in the test with Cyperus (250 g of ai/ha), the “degree of damage to the plants, Cyperus” value is 100%. In addition, in the test with Galium, the “degree of damage to the plants, Galium” value was determined as 90%.

Regarding `COC(=O)c1csc(C)c1S(=O)(=O)NC(=O)n1nc(OC)n(C)c1=O` [Example 2], the activity against weeds result with weeds [1] and in the test with weeds [2] was “very strong activity” in each case. Further, the “degree of damage to the plants, Sinapis” value stood at 100% with Sinapis [3] (60 g of ai/ha) and 95% in the test on Sinapis [9] (60 g of ai/ha). Besides, the “degree of damage … Amaranthus” value in the test on Amaranthus [4] (60 g of ai/ha) and with Amaranthus [10] (60 g of ai/ha) was 100% in each case. Moreover, the “degree of damage to the plants, Xanthium” value in the test with Xanthium [5] (60 g of ai/ha) and with Xanthium [11] (60 g of ai/ha) was 100% throughout. Moreover, the “degree of damage … Alopecurus” value with Alopecurus [6] (60 g of ai/ha) and in the test with Alopecurus [12] (60 g of ai/ha) was 95% in each case. The “degree of damage to the plants, Abutilon” value is listed as 100% with Abutilon [7] (60 g of ai/ha) and 95% in the test with Abutilon [13] (60 g of ai/ha). The “degree of damage … Avenafatua” value with Avenafatua (60 g of ai/ha) is reported as 80%. In addition, the “degree of damage to the plants, Setaria” value in the test on Setaria [8] (60 g of ai/ha) was 100%; with Setaria [14] (60 g of ai/ha) it was 95%. Moreover, the “degree of damage to the plants, Cyperus” value in the test on Cyperus (60 g of ai/ha) is reported as 100%.

Regarding `COC(=O)c1csc(C)c1S(=O)(=O)NC(=O)n1nc(C2CC2)n(C2CC2)c1=O` [Example 9], the activity against weeds entry in the test with weeds [1] and in the test with weeds [2] was “very strong activity” in each case. Further, the “degree of damage to the plants, Sinapis” value with Sinapis [3] (250 g of ai/ha) turned out to be 100%; in the test with Sinapis [9] (250 g of ai/ha) it was 95%. The “degree of damage … Amaranthus” value in the test with Amaranthus [4] (250 g of ai/ha) and in the test on Amaranthus [10] (250 g of ai/ha) was 100% throughout. In addition, in the test with Xanthium [5] (250 g of ai/ha), the “degree of damage to the plants, Xanthium” value is recorded as 100%. For the same molecule, the figures for the “degree of damage … Alopecurus” value in the test on Alopecurus [6] (250 g of ai/ha) and in the test with Alopecurus [12] (250 g of ai/ha) were 100% and 95%, respectively. Also, the “degree of damage to the plants, Abutilon” value in the test on Abutilon [7] (250 g of ai/ha) and in the test with Abutilon [13] (250 g of ai/ha) was 100% in each case. Further, the “degree of damage … Avenafatua” value in the test with Avenafatua (250 g of ai/ha) was 100%. The “degree of damage to the plants, Setaria” value in the test on Setaria [8] (250 g of ai/ha) and with Setaria [14] (250 g of ai/ha) was 100% each time. Further, the “degree of damage to the plants, Cyperus” value in the test on Cyperus (250 g of ai/ha) stood at 100%. Further, the “degree of damage to the plants, Galium” value in the test on Galium is on record as 95%.

Regarding `CCCOc1nn(C(=O)NS(=O)(=O)c2c(C(=O)OC)csc2C)c(=O)n1C1CC1` [Example 7], the activity against weeds entry in the test with weeds [1] and in the test with weeds [2] was “very strong activity” in each case. Besides, the “degree of damage to the plants, Sinapis” value in the test with Sinapis [3] (250 g of ai/ha) is given as 100%; in the test on Sinapis [9] (250 g of ai/ha), 95%. In addition, the “degree of damage … Amaranthus” value is 100% in the test with Amaranthus [4] (250 g of ai/ha) and 95% in the test with Amaranthus [10] (250 g of ai/ha). The “degree of damage to the plants, Xanthium” value in the test on Xanthium [5] (250 g of ai/ha) came to 90%. Moreover, the “degree of damage … Alopecurus” value in the test with Alopecurus [6] (250 g of ai/ha) was found to be 95%; with Alopecurus [12] (250 g of ai/ha), 90%. Also, the “degree of damage to the plants, Abutilon” value amounted to 100% in the test with Abutilon [7] (250 g of ai/ha) and 95% in the test on Abutilon [13] (250 g of ai/ha). The “degree of damage … Avenafatua” value in the test on Avenafatua (250 g of ai/ha) is recorded as 100%. Moreover, the “degree of damage to the plants, Setaria” value in the test with Setaria [8] (250 g of ai/ha) is 90%; with Setaria [14] (250 g of ai/ha), 95%. In addition, the “degree of damage to the plants, Cyperus” value in the test with Cyperus (250 g of ai/ha) turned out to be 100%. The “degree of damage to the plants, Galium” value with Galium is given as 95%.
